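Assay format: 96-well plates, 48-hour exposure. Abbreviation: GI50, concentration required for 50% inhibition of growth.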 The source made the active and inactive calls. Rule as the data show it: active = GI50 up to about 1.1 µM and inactive = higher.
How the values were obtained:
Assay in all cases: NCI anticancer screen, dose series, 48 h
BT-549 = system: BT-549
NCI-H522 = system: NCI-H522
HL-60 = system: HL-60
MCF7 = system: MCF7
HOP-62 = system: HOP-62
MOLT-4 = system: MOLT-4
SW-620 = system: SW-620
UACC-62 = system: UACC-62
UO-31 = system: UO-31
NCI-H226 = system: NCI-H226
HCC 2998 = system: HCC 2998
EKVX = system: EKVX
PC-3 = system: PC-3
OVCAR-8 = system: OVCAR-8
OVCAR-4 = system: OVCAR-4
786-0 = system: 786-0
OVCAR-3 = system: OVCAR-3
NCI-H460 = system: NCI-H460
Malme-3M = system: Malme-3M
A498 = system: A498
K562 = system: K562
NCI-H23 = system: NCI-H23
SNB-75 = system: SNB-75
COLO 205 = system: COLO 205
M14 = system: M14
MDA-MB-435 = system: MDA-MB-435
OVCAR-5 = system: OVCAR-5
SN12C = system: SN12C
A549 = system: A549
KM12 = system: KM12
SNB-19 = system: SNB-19
HCT-116 = system: HCT-116
CAKI-1 = system: CAKI-1
DU-145 = system: DU-145
SK-MEL-28 = system: SK-MEL-28
SF-268 = system: SF-268
Hs-578T = system: Hs-578T
CCRF-CEM = system: CCRF-CEM
SR = system: SR
HCT-15 = system: HCT-15
T47D = system: T47D
IGROV-1 = system: IGROV-1
SK-MEL-2 = system: SK-MEL-2
HT-29 = system: HT-29
SF-295 = system: SF-295
MDA-MB-231 = system: MDA-MB-231
MDA-N = system: MDA-N
ACHN = system: ACHN
SK-OV-3 = system: SK-OV-3
NCI/ADR-RES = system: NCI/ADR-RES
LOX IMVI = system: LOX IMVI
RXF 393 = system: RXF 393
U-251 = system: U-251
SK-MEL-5 = system: SK-MEL-5
RPMI-8226 = system: RPMI-8226
SF-539 = system: SF-539
UACC-257 = system: UACC-257
TK-10 = system: TK-10
HOP-92 = system: HOP-92

In the case of Cn1c2ccccc2n2c3ncccc3c(=S)c(C#N)c12, the GI50 (BT-549) is reported as > 100 µM (inactive), the GI50 (NCI-H522) is reported as > 100 µM (inactive) and the GI50 (HL-60) is reported as > 100 µM (inactive). The GI50 (MCF7) was > 100 µM (inactive), the GI50 (HOP-62) was > 100 µM (inactive) and the GI50 (MOLT-4) was > 100 µM (inactive). The GI50 (SW-620) was > 100 µM (inactive), the GI50 (UACC-62) was > 100 µM (inactive) and the GI50 (UO-31) was > 100 µM (inactive). For the same molecule, the GI50 (NCI-H226) was > 100 µM (inactive), the GI50 (HCC 2998) was > 100 µM (inactive) and the GI50 (EKVX) was > 100 µM (inactive). For the same molecule, the GI50 (PC-3) was > 100 µM (inactive), the GI50 (OVCAR-8) was > 100 µM (inactive) and the GI50 (OVCAR-4) was > 100 µM (inactive). For the same molecule, the GI50 (786-0) was 75.7 µM (inactive), the GI50 (OVCAR-3) was > 100 µM (inactive) and the GI50 (NCI-H460) was 90.4 µM (inactive). The GI50 (Malme-3M) was > 100 µM (inactive), the GI50 (A498) was > 100 µM (inactive) and the GI50 (K562) was > 100 µM (inactive). The GI50 (NCI-H23) was > 100 µM (inactive), the GI50 (SNB-75) was 40.3 µM (inactive) and the GI50 (COLO 205) was > 100 µM (inactive). The GI50 (M14) was > 100 µM (inactive), the GI50 (MDA-MB-435) was > 100 µM (inactive) and the GI50 (OVCAR-5) was > 100 µM (inactive). For the same molecule, the GI50 (SN12C) was > 100 µM (inactive), the GI50 (A549) was > 100 µM (inactive) and the GI50 (KM12) was > 100 µM (inactive). For the same molecule, the GI50 (SNB-19) was > 100 µM (inactive), the GI50 (HCT-116) was > 100 µM (inactive) and the GI50 (CAKI-1) was > 100 µM (inactive). For the same molecule, the GI50 (DU-145) was > 100 µM (inactive), the GI50 (SK-MEL-28) was > 100 µM (inactive) and the GI50 (SF-268) was > 100 µM (inactive). The GI50 (Hs-578T) was > 100 µM (inactive), the GI50 (CCRF-CEM) was > 100 µM (inactive) and the GI50 (SR) was 71.4 µM (inactive). For the same molecule, the GI50 (HCT-15) was over 100 µM, the GI50 (T47D) was > 100 µM (inactive) and the GI50 (IGROV-1) was > 100 µM (inactive). For the same molecule, the GI50 (SK-MEL-2) was > 100 µM (inactive), the GI50 (HT-29) was > 100 µM (inactive) and the GI50 (SF-295) was > 100 µM (inactive). The GI50 (MDA-MB-231) was > 100 µM (inactive), the GI50 (MDA-N) was > 100 µM (inactive) and the GI50 (ACHN) was > 100 µM (inactive). For the same molecule, the GI50 (SK-OV-3) was > 100 µM (inactive), the GI50 (NCI/ADR-RES) was > 100 µM (inactive) and the GI50 (LOX IMVI) was > 100 µM (inactive). The GI50 (RXF 393) was > 100 µM (inactive), the GI50 (U-251) was > 100 µM (inactive) and the GI50 (SK-MEL-5) was > 100 µM (inactive). The GI50 (RPMI-8226) was > 100 µM (inactive).

With CCn1c(SCC(=O)NNC(=S)Nc2ccc([N+](=O)[O-])cc2)nc2ccccc2c1=O the GI50 (BT-549) was 53.8 µM (inactive), the GI50 (NCI-H522) was 39.8 µM (inactive) and the GI50 (HL-60) was 40.7 µM (inactive). The GI50 (MCF7) was 83.4 µM (inactive), the GI50 (HOP-62) was 81.1 µM (inactive) and the GI50 (MOLT-4) was 23.2 µM (inactive). The GI50 (SW-620) was 86.5 µM (inactive), the GI50 (UACC-62) was 48.9 µM (inactive) and the GI50 (UO-31) was 39.5 µM (inactive). The GI50 (NCI-H226) was 90.4 µM (inactive), the GI50 (HCC 2998) was 50.1 µM (inactive) and the GI50 (EKVX) was > 100 µM (inactive). The GI50 (PC-3) was 41.4 µM (inactive), the GI50 (OVCAR-8) was > 100 µM (inactive) and the GI50 (SF-539) was > 100 µM (inactive). For the same molecule, the GI50 (OVCAR-4) was 48.5 µM (inactive), the GI50 (786-0) was 60.5 µM (inactive) and the GI50 (OVCAR-3) was 39.2 µM (inactive). The GI50 (NCI-H460) was 48.8 µM (inactive), the GI50 (Malme-3M) was 73.5 µM (inactive) and the GI50 (A498) was 48.2 µM (inactive). For the same molecule, the GI50 (K562) was 42.7 µM (inactive), the GI50 (NCI-H23) was 62.5 µM (inactive) and the GI50 (SNB-75) was 83.4 µM (inactive). The GI50 (COLO 205) was 47.5 µM (inactive), the GI50 (M14) was > 100 µM (inactive) and the GI50 (MDA-MB-435) was > 100 µM (inactive). For the same molecule, the GI50 (OVCAR-5) was > 100 µM (inactive), the GI50 (UACC-257) was > 100 µM (inactive) and the GI50 (SN12C) was 50.9 µM (inactive). For the same molecule, the GI50 (A549) was > 100 µM (inactive), the GI50 (KM12) was 68.2 µM (inactive) and the GI50 (SNB-19) was 81.7 µM (inactive). For the same molecule, the GI50 (HCT-116) was 35.3 µM (inactive), the GI50 (TK-10) was 68.9 µM (inactive) and the GI50 (CAKI-1) was > 100 µM (inactive). For the same molecule, the GI50 (DU-145) was > 100 µM (inactive), the GI50 (SK-MEL-28) was 57.5 µM (inactive) and the GI50 (SF-268) was 60.1 µM (inactive). The GI50 (Hs-578T) was > 100 µM (inactive), the GI50 (CCRF-CEM) was 37.2 µM (inactive) and the GI50 (SR) was 23 µM (inactive). For the same molecule, the GI50 (HCT-15) was 47 µM, the GI50 (T47D) was 64.3 µM (inactive) and the GI50 (IGROV-1) was > 100 µM (inactive). For the same molecule, the GI50 (SK-MEL-2) was > 100 µM (inactive), the GI50 (SF-295) was 58.2 µM (inactive) and the GI50 (MDA-MB-231) was > 100 µM (inactive). For the same molecule, the GI50 (MDA-N) was > 100 µM (inactive), the GI50 (ACHN) was > 100 µM (inactive) and the GI50 (SK-OV-3) was > 100 µM (inactive). The GI50 (NCI/ADR-RES) was > 100 µM (inactive), the GI50 (LOX IMVI) was 54.3 µM (inactive) and the GI50 (RXF 393) was 34.5 µM (inactive). For the same molecule, the GI50 (U-251) was 73.3 µM (inactive), the GI50 (SK-MEL-5) was 79.6 µM (inactive) and the GI50 (RPMI-8226) was 29.9 µM (inactive).

For CC12c3c4ccc(C=O)c3Oc3ccc(C=O)c(c31)Oc1ccc(C=O)c(c12)O4, the GI50 (BT-549) was > 25 µM (inactive), the GI50 (NCI-H522) was > 25 µM (inactive) and the GI50 (HL-60) was > 25 µM (inactive). For the same molecule, the GI50 (MCF7) was > 25 µM (inactive), the GI50 (HOP-62) was > 25 µM (inactive) and the GI50 (MOLT-4) was > 25 µM (inactive). For the same molecule, the GI50 (SW-620) was > 25 µM (inactive), the GI50 (UACC-62) was > 25 µM (inactive) and the GI50 (UO-31) was > 25 µM (inactive). The GI50 (NCI-H226) was > 25 µM (inactive), the GI50 (EKVX) was > 25 µM (inactive) and the GI50 (PC-3) was > 25 µM (inactive). The GI50 (OVCAR-8) was > 25 µM (inactive), the GI50 (SF-539) was > 25 µM (inactive) and the GI50 (OVCAR-4) was > 25 µM (inactive). The GI50 (786-0) was > 25 µM (inactive), the GI50 (OVCAR-3) was > 25 µM (inactive) and the GI50 (NCI-H460) was > 25 µM (inactive). For the same molecule, the GI50 (Malme-3M) was > 25 µM (inactive), the GI50 (A498) was > 25 µM (inactive) and the GI50 (K562) was > 25 µM (inactive). For the same molecule, the GI50 (NCI-H23) was > 25 µM (inactive), the GI50 (SNB-75) was > 25 µM (inactive) and the GI50 (COLO 205) was > 25 µM (inactive). For the same molecule, the GI50 (M14) was > 25 µM (inactive), the GI50 (MDA-MB-435) was > 25 µM (inactive) and the GI50 (OVCAR-5) was > 25 µM (inactive). The GI50 (UACC-257) was > 25 µM (inactive), the GI50 (SN12C) was > 25 µM (inactive) and the GI50 (A549) was > 25 µM (inactive). The GI50 (KM12) was > 25 µM (inactive), the GI50 (SNB-19) was > 25 µM (inactive) and the GI50 (HCT-116) was > 25 µM (inactive). The GI50 (CAKI-1) was > 25 µM (inactive), the GI50 (DU-145) was > 25 µM (inactive) and the GI50 (SK-MEL-28) was > 25 µM (inactive). For the same molecule, the GI50 (SF-268) was > 25 µM (inactive), the GI50 (Hs-578T) was > 25 µM (inactive) and the GI50 (CCRF-CEM) was 17.5 µM (inactive). The GI50 (SR) was 7.11 µM (inactive), the GI50 (HCT-15) was over 25 µM and the GI50 (T47D) was > 25 µM (inactive). The GI50 (IGROV-1) was > 25 µM (inactive), the GI50 (SK-MEL-2) was > 25 µM (inactive) and the GI50 (HT-29) was > 25 µM (inactive). For the same molecule, the GI50 (SF-295) was > 25 µM (inactive), the GI50 (MDA-MB-231) was > 25 µM (inactive) and the GI50 (MDA-N) was > 25 µM (inactive). For the same molecule, the GI50 (ACHN) was > 25 µM (inactive), the GI50 (SK-OV-3) was > 25 µM (inactive) and the GI50 (NCI/ADR-RES) was > 25 µM (inactive). The GI50 (LOX IMVI) was > 25 µM (inactive), the GI50 (RXF 393) was > 25 µM (inactive) and the GI50 (HOP-92) was > 25 µM (inactive). The GI50 (U-251) was > 25 µM (inactive) and the GI50 (RPMI-8226) was > 25 µM (inactive).

Reference: ChEMBL document CHEMBL1201862, “PubChem BioAssay data set” (2004)
